From the NIST ThermoML archive (doi:10.1021/je200922s)

Test: xn = mol fraction of the nth substance listed
Details: 101 kPa, Liquid; for viscosity: Capillary tube (Ostwald / Ubbelohde) method; for mass density: Vibrating tube method

CCn1cc[n+](C)c1.O=S(=O)([N-]S(=O)(=O)C(F)(F)F)C(F)(F)F + CCO
Details | mass density [kg/m3] | viscosity [mPa·s]
293.15 K, x1 = 0.1008 | 1038.4 | 1.612
293.15 K, x1 = 0.1971 | 1179.41 | 2.78
293.15 K, x1 = 0.3 | 1276.68 | 4.6
293.15 K, x1 = 0.3992 | 1341.77 | 7.429
293.15 K, x1 = 0.5014 | 1391.85 | 10.65
293.15 K, x1 = 0.5955 | 1427.56 | 13.87
293.15 K, x1 = 0.6966 | 1458.64 | 17.76
293.15 K, x1 = 0.7982 | 1484.18 | 21.8
293.15 K, x1 = 0.9041 | 1506.32 | 28.74
298.15 K, x1 = 0.1008 | 1034.14 | 1.478
298.15 K, x1 = 0.1971 | 1175.21 | 2.35
298.15 K, x1 = 0.3 | 1272.19 | 4.15
298.15 K, x1 = 0.3992 | 1337.18 | 6.479
298.15 K, x1 = 0.5014 | 1387.12 | 9.232
298.15 K, x1 = 0.5955 | 1422.72 | 12.05
298.15 K, x1 = 0.6966 | 1453.69 | 15.18
298.15 K, x1 = 0.7982 | 1479.17 | 18.7
298.15 K, x1 = 0.9041 | 1501.31 | 24.52
303.15 K, x1 = 0.1008 | 1029.79 | 1.25
303.15 K, x1 = 0.1971 | 1170.59 | 2.16
303.15 K, x1 = 0.3 | 1267.5 | 3.728
303.15 K, x1 = 0.3992 | 1332.39 | 5.697
303.15 K, x1 = 0.5014 | 1382.49 | 8.1
303.15 K, x1 = 0.5955 | 1417.99 | 10.31
303.15 K, x1 = 0.6966 | 1448.78 | 13.13
303.15 K, x1 = 0.7982 | 1474.28 | 16.12
303.15 K, x1 = 0.9041 | 1496.34 | 20.9
308.15 K, x1 = 0.1008 | 1025.12 | 1.12
308.15 K, x1 = 0.1971 | 1166.55 | 1.9
308.15 K, x1 = 0.3 | 1263.4 | 3.157
308.15 K, x1 = 0.3992 | 1327.88 | 5.055
308.15 K, x1 = 0.5014 | 1377.68 | 7.177
308.15 K, x1 = 0.5955 | 1413.41 | 9.109
308.15 K, x1 = 0.6966 | 1443.98 | 11.47
308.15 K, x1 = 0.7982 | 1469.4 | 14.04
308.15 K, x1 = 0.9041 | 1491.39 | 18.05
313.15 K, x1 = 0.1008 | 1021.47 | 1.101
313.15 K, x1 = 0.1971 | 1162.51 | 1.645
313.15 K, x1 = 0.3 | 1259.31 | 2.64
313.15 K, x1 = 0.3992 | 1323.62 | 4.404
313.15 K, x1 = 0.5014 | 1372.99 | 6.199
313.15 K, x1 = 0.5955 | 1408.57 | 7.954
313.15 K, x1 = 0.6966 | 1439.3 | 10.01
313.15 K, x1 = 0.7982 | 1464.39 | 12.34
313.15 K, x1 = 0.9041 | 1486.41 | 15.74
318.15 K, x1 = 0.1008 | 1019.1 | 1.001
318.15 K, x1 = 0.1971 | 1159.51 | 1.412
318.15 K, x1 = 0.3 | 1255.23 | 2.459
318.15 K, x1 = 0.3992 | 1319.8 | 3.945
318.15 K, x1 = 0.5014 | 1368.71 | 5.603
318.15 K, x1 = 0.5955 | 1404 | 7.141
318.15 K, x1 = 0.6966 | 1434.53 | 8.965
318.15 K, x1 = 0.7982 | 1459.6 | 10.93
318.15 K, x1 = 0.9041 | 1481.54 | 13.84
323.15 K, x1 = 0.1008 | 1015.54 | 0.987
323.15 K, x1 = 0.1971 | 1156.54 | 1.307
323.15 K, x1 = 0.3 | 1252.11 | 2.317
323.15 K, x1 = 0.3992 | 1316.24 | 3.656
323.15 K, x1 = 0.5014 | 1364.61 | 5.195
323.15 K, x1 = 0.5955 | 1399.5 | 6.5
323.15 K, x1 = 0.6966 | 1429.97 | 8.116
323.15 K, x1 = 0.7982 | 1454.97 | 9.799
323.15 K, x1 = 0.9041 | 1476.73 | 12.28
